# Where “and” joins values, the source holds several entries; their conditions need not be identical. Identical values can stand only once.
# Key:
# Rattus norvegicus [1] = conditions: acute; oral; gavage
# Oryctolagus sp. = conditions: acute; dermal; occlusive
# Rattus norvegicus [2] = conditions: oral; for LOEL / NOEL: Hershberger, gavage; for LEL: uterotrophic, duration: 3 days, Active
# Rattus norvegicus [3] = conditions: developmental; oral; M/F; reduced pup weanling weight
# Rattus norvegicus [4] = conditions: subchronic; oral; gavage; Sprague-Dawley
# Rattus norvegicus [5] = conditions: for LOAEL: M/F
# Mus musculus = conditions: subchronic; duration: 13 weeks; oral; diet; F; B6C3F1; renal
# [6] = duration: 10 days, Sprague-Dawley, active + Negative + Antiandrogenic + anti-androgenic
# [7] = duration: 10 days, Sprague-Dawley, active + Antiandrogenic + anti-androgenic
# [8] = duration: 5 days, Sprague-Dawley, active + Antiandrogenic + decrease in AST wts
# [9] = duration: 10 days, Fischer 344, active + Antiandrogenic + anti-androgenic + decrease in AST wts
# [10] = duration: 10 days, Sprague-Dawley, Antiandrogenic + anti-androgenic + decrease in AST wts
# [11] = duration: 10 days, Wistar, active + Antiandrogenic + anti-androgenic + decrease in AST wts
structure (smiles),measurement,setting,value
CCCCCN(CCCCC)C(=S)[S][Sb]([S]C(=S)N(CCCCC)CCCCC)[S]C(=S)N(CCCCC)CCCCC [Antimony diamyldithiocarbamate],LD50,Rattus norvegicus [1],16400 mg/kg
same,LD50,Oryctolagus sp.,16000 mg/kg
CCCCNC(=O)n1c(NC(=O)OC)nc2ccccc21 [Benomyl],LOEL,Rattus norvegicus [2]; [6],1000 mg/kg-day
same,NOEL,Rattus norvegicus [2]; [6],300 mg/kg-day
same,LEL,Rattus norvegicus [3],25 mg/kg-day
same,NOEL,Rattus norvegicus [3],5 mg/kg-day
ClCCOCCCl [Bis(chloroethyl) ether],NOEL,Rattus norvegicus [4],15 mg/kg-day
same,LOAEL,"Rattus norvegicus [5]; chronic, duration: 130 days, inhalation, body weight",404 mg/m3
CCC[CH2][Sn]([Cl])([Cl])[CH2]CCC [Dibutyltin dichloride],LOAEL,"Rattus norvegicus [5]; short-term, duration: 6 weeks, oral, diet, Wistar, immunological",5 mg/kg-day
CC(C)CCCCCCCOC(=O)c1ccccc1C(=O)OCCCCCCCC(C)C [Diisodecyl phthalate],LOEL,Rattus norvegicus [2]; [7],500 mg/kg-day
same,NOEL,Rattus norvegicus [2]; [7],100 mg/kg-day
C#C[C@]1(OC(=O)CC)C[C@@H]2CC[C@@H]3[C@H](CC[C@@]4(C)[C@H]3CC[C@]4(C#C)OC(=O)CC)[C@H]2C1 [Dinordrin II],LEL,Rattus norvegicus [2],0.01 mg/day
C#C[C@@]1(OC(=O)CC)C[C@@H]2CC[C@@H]3[C@H](CC[C@@]4(C)[C@H]3CC[C@]4(C#C)OC(=O)CC)[C@H]2C1 [Dinordrin I],LEL,Rattus norvegicus [2],0.000156 mg/day
CC(C)([CH2][Sn]([CH2]C(C)(C)c1ccccc1)([CH2]C(C)(C)c1ccccc1)[O][Sn]([CH2]C(C)(C)c1ccccc1)([CH2]C(C)(C)c1ccccc1)[CH2]C(C)(C)c1ccccc1)c1ccccc1 [Fenbutatin oxide],LOEL,"Rattus norvegicus [2]; duration: 10 days, wistar, active + Negative + Antiandrogenic + anti-androgenic + decrease in age of partial PPS at 10 / decrease in PPS wt and age at 75 with …",10 mg/kg-day
COP(=S)(OC)Oc1ccc([N+](=O)[O-])c(C)c1 [Fenitrothion],LOEL,"Rattus norvegicus [2]; duration: 7 days, Sprague-Dawley, active + Negative + Antiandrogenic + anti-androgenic",15 mg/kg-day
CC(C)C(=O)Nc1ccc([N+](=O)[O-])c(C(F)(F)F)c1 [Flutamide],LOEL,Rattus norvegicus [2]; [8],2.5 mg/kg-day
same,NOEL,Rattus norvegicus [2]; [8],0.6 mg/kg-day
same,NOEL,"Rattus norvegicus [2]; duration: 7 days, Sprague-Dawley, active + Antiandrogenic + anti-androgenic + decrease in AST wts",0.6 mg/kg-day
same,LOEL,Rattus norvegicus [2]; [9],2.5 mg/kg-day and 3.2 mg/kg-day
same,NOEL,Rattus norvegicus [2]; [9],0.6 mg/kg-day
same,LOEL,Rattus norvegicus [2]; [10],1 mg/kg-day
same,NOEL,Rattus norvegicus [2]; [10],0.6 mg/kg-day
same,NOEL,"Rattus norvegicus [2]; duration: 10 days, Sprague-Dawley, Neither + decrease in AST",0.6 mg/kg-day
same,NOEL,"Rattus norvegicus [2]; duration: 10 days, Sprague-Dawley, active + Antiandrogenic + anti-androgenic + decrease in AST wts",0.6 mg/kg-day
same,NOEL,"Rattus norvegicus [2]; duration: 10 days, Sprague-Dawley, active + Antiandrogenic + decrease in AST wts",0.6 mg/kg-day
same,LOEL,Rattus norvegicus [2]; [11],2.5 mg/kg-day and 3 mg/kg-day and 3.2 mg/kg-day
same,NOEL,Rattus norvegicus [2]; [11],0.6 mg/kg-day
Brc1ccccc1-c1c(Br)c(Br)c(Br)c(Br)c1Br [Hexabromobiphenyl],NOAEL,"Rattus norvegicus [5]; short-term, duration: 10 days, oral, gavage, M, Sprague-Dawley, endocrine",1 mg/kg-day
"ClC(Cl)=C(Cl)C(Cl)=C(Cl)Cl [Hexachloro-1,3-butadiene]",NOAEL,Mus musculus,0.2 mg/kg-day
same,LOAEL,"Rattus norvegicus [5]; short-term, duration: 14 days, oral, diet, Wistar, renal",5.9 mg/kg-day
